What was measured:
[1] = tested on: OVA protein and OB1 peptide; settings: three consecutive injections, C57BL/6J
2D2 CD4 T cells = assay: 2D2 CD4 T-cell adoptive transfer and challenge; settings: amount equimolar to the administered […]-MOG35-55 adduct

Substance	IgG antibody responses against OVA protein or OB1 peptide [1]	division of 2D2 T cells (2D2 CD4 T cells) [%]
OVA protein: free OVA (ovalbumin) protein, equimolar amounts	readily produced such antibodies	
MOG35-55: amino acids 35-55 of MOG, MEVGWYRSPFSRVVHLYRNGK (SEQ ID NO: 49) (UniProt Q61885 63-83, looked up, fragment)		≤ 5

Reference: patent US20230233701A1 (priority 2020, published 2023)
